Reference: patent publication US20030005484A1, “Microbiocidal and pesticidal aromatic aldehydes” (ProGuard, Inc., priority 1994, published 2003)
Several values for one entry are separate records, joined by “and”; a condition that tells them apart may be missing. Equal values may be shown once.

Legend:
leafhoppers = leafhoppers on cabernet sauvignon grapevines, 0.3% spray; assay type: in vivo; conditions: 0.3% CNMA; two days after spraying; untreated 2.46
Method: The effect of 0.3% cinnamic aldehyde on leafhoppers and spider mites on grapevine leaves was examined. 30% cinnamic aldehyde was diluted 1:100 in water and sprayed one time on a 1 acre block of cabernet sauvignon grapevines in a vineyard using a 300 gal Pul-Blast rsprayer at 160 psi. 120 gal. were applied to one acre of vineyard. As a control, a one-acre block remained untreated. Blocks were pseudo-replicated so as to obtain an indication of the reliability of the treatment. Prior to treatment mites on leaves were pre-counted using a dissecting microscope. Leafhopper numbers also were determined in the field prior to treatment. Two days after spraying, two leaves, one from the basal portion and one from the proximal portion of the vine were examined from 16 vines from 2 rows for each treatment. Leaf samples also were taken from both sides of the vines (north and south) to include variation due to vine exposure. […]

[1] = tested on: Fusarium subglutinans f. sp. pini; test: radial growth on amended potato dextrose agar; assay type: cell-based; conditions: five days at 18° C
Method: A double-blind bioassay was undertaken using cinnamic aldehyde in various concentrations and formulations. The bioassay was based on inhibition of radial growth of Fusarium subglutinans f. sp. pini. Eight ml of formulation (concentration unknown) was pipetted into 200 ml of molten 2% potato dextrose agar (PDA) and the mixture was dispersed into five plastic petri dishes (25 ml dish). Each of four plates was inoculated at the center with an agar plug transferred from a growing PDA culture of Fusarium subglutinans f. sp. pini (isolate SL-1, UCB), while the fifth plate was left noninoculated as a control. These steps were repeated for each formulation of the cinnamic aldehyde. As a positive control, four PDA plates amended with 5 ppm benomyl were inoculated. as described; the negative control was four unamended PDA plates that were inoculated with F. subglutinans. All inoculated and non-inoculated plates were incubated at 18° C. for five days, after which colony diameters were measured.

[2] = tested on: silverleaf white fly, Bemisia argentifolii; test: silver leaf white fly Petri dish bioassay
Method: (§1) Activity of cinnamic aldehyde and/or coniferyl aldehyde against black bean aphid, Tetranychus urticae, and silverleaf white fly, Bemisia argentifolii was determined as follows:
Petri dishes (60 mm) were treated with cinnamic aldehyde at 10-25,000 ppm in 2% Tween 80 and 6% NaHCO3 dissolved in water, and allowed to air dry. Twenty adult silver leaf white fly were put in each dish, (replicate 10 times). The mortality after three hours in contact with a treated plate, was compared to that of silver leaf white fly in petri dishes treated only with diluent. Malathion at 250 ppm was used as a positive control.

phylloxera Biotype A = test: planter / field box vines, leaf spray, phylloxera population on roots; assay type: in vivo, Daktulosphaira vitifoliae; conditions: for Number of phylloxera per root piece: Merlot, two weeks; for reduction of population versus control vines: field planter boxes, after two weeks; for phylloxera population, Mean ± 95% CI: boxed 1 year old Merlot
Excerpt: Planter boxes are wooden boxes with a top surface area of 1.5 m×1 m and are 1.5 m tall. They were filled with a clay-loam soil and each was planted to 4 one-year old Merlot plants in early spring, 1995. They were infested with biotype A phylloxera in May, 1995 by placing about 150 eggs adjacent to an attached root under the soil surface. The plants were irrigated weekly with a fine mist. Treatments were made at various times in July and August 1995 using the household 1 liter-capacity plastic spray bottles, spraying to runoff. At one or two weeks after treatment, plants root systems were removed from the soil and total phylloxera populations were estimated.

[3] = tested on: black bean aphid, Tetranychus urticae; test: aphid Petri dish bioassay; conditions: for mortality: three hours contact
Method: as §1
Petri dishes (60 mm) were treated with cinnamic aldehyde at 10-25,000 ppm in 2% Tween 80 and 6% NaHCO3 dissolved in water, and the dishes allowed to air dry. Twenty adult aphids (Tetranychus urticae) were put in each dish, (replicate 10 times). The mortality after three hours in contact with a treated plate was compared to that of aphids in petri dishes treated only with diluent. Malathion (250 ppm) was used as a positive control.

[4] = tested on: western flower thrips, Frankliniella occidentalis; test: western flower thrips dose-mortality on miniature rose foliage; assay type: in vivo
Method: Dose-mortality response of CNMA formula against western flower thrips, Frankliniella occidentalis, was evaluated. Three different dose levels of the CNMA formulation were tested in comparison with a water only control. Tests were conducted using 500 ml ventilated paper cartons as experimental areas containing miniature rose foliage with approximately 30 adult F. occidentalis in each. An F. occidentalis colony (U.C. Davis, Department of Entomology) maintained on chrysanthemums and miniature rose was the source of thrips for the study. Three active ingredient dose levels (0.1, 0.3, and 1.0%) were sprayed onto the plants using a laboratory spray tower calibrated to spray the field equivalent of 113 L per acre at the desired dosage. Four replicates (4 observations per treatment) were compared for each dosage. For each test, treatment cartons received the treatment and were maintained at room temperature. […] Table 20 presents the mean mortality treatment data.

Ring Nematode = test: vineyard grape vines, nematode infestation: ring; assay type: in vivo
Method: The subject formulations were tested for ability to reduce grape vine infestation by root knot, ring, stubby root, and roll lesion nematodes. Grape vines (Harmony rootstock) in a vinyard were treated with 1000 ppm or 3000 ppm cinnamaldehyde in 2% Tween 80, the commercial anti-nematode agent Nemacur, or a formulation blank. The extent of nematode infestation was determined at the time of treatment and at 30 and 60 days post-treatment.

[5] = 2500 ppm and above in 2% Tween 80 and 6% NaHCO3, three hours contact with treated dish

Q: How did the LEAFHOPPERS/LEAF (leafhoppers) turn out when `O=C/C=C/c1ccccc1` [cinnamic aldehyde] was run?
A: The LEAFHOPPERS/LEAF was 0.16.

Q: And the “Colony diameter (cm)” value ([1]; 10 ppm CNMA (with saponin: 0.86 ml Yucca extract 10° BRIX))?
A: The value was 4.36 cm.

Q: What about the “Colony diameter (cm)” value ([1]; 10 ppm CNMA (with saponin: 0.86 ml Yucca extract 10° BRIX), listed as CNMA) of the same compound?
A: Its value is 4.363 cm.

Q: What about the “Colony diameter (cm)” value ([1]; 100 ppm CNMA (with saponin: 0.86 ml)) of the same compound?
A: The value was 4.238 cm.

Q: And the “Colony diameter (cm)” value ([1]; 100 ppm CNMA (with saponin: 0.86 ml), listed as PGXL CNMA)?
A: Its value is 4.24 cm.

Q: What about the “Colony diameter (cm)” value ([1]; 2,500 ppm CNMA (with saponin: 0.86 ml)) of the same compound?
A: The value was 3.513 cm.

Q: And the “Colony diameter (cm)” value ([1]; 2,500 ppm CNMA (with saponin: 0.86 ml), listed as PGXL CNMA)?
A: Its value is 3.51 cm.

Q: And the “Colony diameter (cm)” value ([1]; 5,000 ppm CNMA (with saponin: 0.86 ml))?
A: Its value is 2.908 cm.

Q: What about the “Colony diameter (cm)” value ([1]; 5,000 ppm CNMA (with saponin: 0.86 ml), listed as PGXL CNMA) of the same compound?
A: Its value is 2.91 cm.

Q: And the “Colony diameter (cm)” value ([1]; 12,500 ppm CNMA (with saponin: 0.86 ml))?
A: The value was 0.000 cm.

Q: And the “Colony diameter (cm)” value ([1]; 12,500 ppm CNMA (with saponin: 0.86 ml), listed as PGXL CNMA)?
A: The value was 0 cm.

Q: What about the “Colony diameter (cm)” value ([1]; 25,000 ppm CNMA (with saponin: 0.86 ml)) of the same compound?
A: The value was 0.000 cm.

Q: What about the “Colony diameter (cm)” value ([1]; 25,000 ppm CNMA (with saponin: 0.86 ml), listed as PGXL CNMA) of the same compound?
A: The value was 0 cm.

Q: What about the “silver leaf white fly killed” value [2, 5] of the same compound?
A: Its value is 100%.

Q: And the mortality at 10 ppm ([2]; Bemisia argentifolii, 3 h)?
A: Its mortality at 10 ppm is 25%.

Q: What about the mortality at 100 ppm ([2]; Bemisia argentifolii, 3 h) of the same compound?
A: The mortality at 100 ppm was 50%.

Q: And the “Silver Leaf White Fly Mortality (Percent)” value ([2]; Cinnamic Aldehyde (20 g) with NaHCO3)?
A: Its value is 87.3%.

Q: What about the “Silver Leaf White Fly Mortality (Percent)” value ([2]; Cinnamic Aldehyde (20 g) with T80(2%) + NaHCO3 (6%)) of the same compound?
A: The value was 100%.

Q: What about the “Silver Leaf White Fly Mortality (Percent)” value ([2]; Cinnamic Aldehyde (20 g) with T80 (10 g)) of the same compound?
A: The value was 72.1%.

Q: And the “Silver Leaf White Fly Mortality (Percent)” value ([2]; Cinnamic Aldehyde (20 g), no additive)?
A: The value was 68.6%.

Q: And the “Number of phylloxera per root piece” value (phylloxera Biotype A; 1 K CNMA, one value per plant)?
A: Its value is 133 and 72 and 95.

Q: And the “Number of phylloxera per root piece” value (phylloxera Biotype A; 20 K (20,000 ppm CNMA in 6% NaHCO3 and 2% Tween-80))?
A: The value was 16.

Q: What about the “reduction of population versus control vines” value (phylloxera Biotype A; 1,000 ppm leaf spray) of the same compound?
A: The value was 92%.

Q: And the “reduction of population versus control vines” value (phylloxera Biotype A; 10,000 ppm leaf spray)?
A: Its value is 95%.

Q: What about the “phylloxera population, Mean ± 95% CI” value (phylloxera Biotype A; foliage to runoff, 1000 ppm, Exp. 1) of the same compound?
A: The value was 100 ± 31.

Q: And the “phylloxera population, Mean ± 95% CI” value (phylloxera Biotype A; foliage to runoff, 1000 ppm, Exp. 2)?
A: The value was 58 ± 17.

Q: What about the “phylloxera population, Mean ± 95% CI” value (phylloxera Biotype A; foliage to runoff, 10,000 ppm, Exp. 1) of the same compound?
A: Its value is 60 ± 37.

Q: What about the “phylloxera population, Mean ± 95% CI” value (phylloxera Biotype A; foliage to runoff, 10,000 ppm, Exp. 2) of the same compound?
A: Its value is 43 ± 56.

Q: And the mortality ([3]; 10 ppm in 2% Tween 80 and 6% NaHCO3)?
A: The mortality was 25%.

Q: What about the mortality ([3]; 100 ppm in 2% Tween 80 and 6% NaHCO3) of the same compound?
A: The mortality was 50%.

Q: What about the aphids killed [3, 5] of the same compound?
A: Its aphids killed is 100%.

Q: And the “Mean Thrip Mortality” value ([4]; 0.1% CNMA (C), sampling time 1615)?
A: Its value is 0.13.

Q: What about the “Mean Thrip Mortality” value ([4]; 0.1% CNMA (C), sampling time 1645) of the same compound?
A: The value was 0.17.

Q: And the “Mean Thrip Mortality” value ([4]; 0.1% CNMA (C), sampling time 1715)?
A: Its value is 0.17.

Q: What about the “Mean Thrip Mortality” value ([4]; 0.1% CNMA (C), sampling time 1845) of the same compound?
A: The value was 0.19.

Q: What about the “Mean Thrip Mortality” value ([4]; 0.1% CNMA (C), sampling time 2215) of the same compound?
A: Its value is 0.25.

Q: And the “Mean Thrip Mortality” value ([4]; 0.3% CNMA (B), sampling time 1615)?
A: The value was 0.26.

Q: What about the “Mean Thrip Mortality” value ([4]; 0.3% CNMA (B), sampling time 1645) of the same compound?
A: Its value is 0.28.

Q: What about the “Mean Thrip Mortality” value ([4]; 0.3% CNMA (B), sampling time 1715) of the same compound?
A: Its value is 0.28.

Q: And the “Mean Thrip Mortality” value ([4]; 0.3% CNMA (B), sampling time 1845)?
A: Its value is 0.37.

Q: What about the “Mean Thrip Mortality” value ([4]; 0.3% CNMA (B), sampling time 2215) of the same compound?
A: The value was 0.40.

Q: And the “Mean Thrip Mortality” value ([4]; 1.0% CNMA (A), sampling time 1615)?
A: The value was 0.79.

Q: What about the “Mean Thrip Mortality” value ([4]; 1.0% CNMA (A), sampling time 1645) of the same compound?
A: Its value is 0.82.

Q: What about the “Mean Thrip Mortality” value ([4]; 1.0% CNMA (A), sampling time 1715) of the same compound?
A: The value was 0.78.

Q: And the “Mean Thrip Mortality” value ([4]; 1.0% CNMA (A), sampling time 1845)?
A: The value was 0.84.

Q: What about the “Mean Thrip Mortality” value ([4]; 1.0% CNMA (A), sampling time 2215) of the same compound?
A: The value was 0.84.

Q: And the “Ring Nematode, nematodes per 250 cc soil” value (Ring Nematode; 1000 ppm in 2% Tween 80, 30 days post-treatment)?
A: Its value is 171.2 per 250 cc soil.

Q: And the “Ring Nematode, nematodes per 250 cc soil” value (Ring Nematode; 1000 ppm in 2% Tween 80, 60 days post-treatment)?
A: The value was 1168 per 250 cc soil.

Q: And the “Ring Nematode, nematodes per 250 cc soil” value (Ring Nematode; 1000 ppm in 2% Tween 80, day 0 (time of treatment))?
A: Its value is 47.2 per 250 cc soil.

Q: And the “Ring Nematode, nematodes per 250 cc soil” value (Ring Nematode; 3000 ppm in 2% Tween 80, 30 days post-treatment)?
A: Its value is 322.8 per 250 cc soil.

Q: And the “Ring Nematode, nematodes per 250 cc soil” value (Ring Nematode; 3000 ppm in 2% Tween 80, 60 days post-treatment)?
A: Its value is 1127 per 250 cc soil.

Q: What about the “Ring Nematode, nematodes per 250 cc soil” value (Ring Nematode; 3000 ppm in 2% Tween 80, day 0 (time of treatment)) of the same compound?
A: Its value is 540.2 per 250 cc soil.
